This is an account of results in patent publication US8552035B2, “Phenanthrenone compounds, compositions and methods” (Pfizer Inc., priority 2008, dated 2013).

Series [1] has as its system IFNγ. Description: LPS-induced human whole blood, IFNγ release. As to conditions: Homo sapiens, mean of donors. The format is cell-based. As for the experimental part: (§1) Venous blood from human donors was collected as 10 ml aliquots in tubes containing sodium heparin (BD Vacutainer from Becton Dickinson and Company, Franklin Lakes, N.Y.). Blood was added to sterile polystyrene round bottom 96-well tissue culture plates (Corning Costar) at 180 Blood was placed in a humidified 37 C incubator with 5% CO2 while compounds were prepared (nearly 60 minutes).
(§2) Compounds were prepared from 10 mM stock solutions in dimethylsulfoxide (DMSO, Sigma-Aldrich). Stock compound was diluted in DMSO to give appropriate starting concentration then diluted serially 1/3 in DMSO (i.e. 15 μl compound+30 μl DMSO), followed by diluting each serial dilution 1/167 into vehicle solution (2% DMSO in phosphate buffered saline (Dulbecco's Phosphate Buffered Saline without calcium chloride without magnesium chloride, Invitrogen Corporation, Carlsbad Calif.)). Compound or vehicle was added to blood in 10 μl aliquots as triplicates, omitting the outside wells to minimize possible edge effects. The final highest concentration of each compound in the assay ranged from 3 to 0.3 μM. Final DMSO concentration in the assay was 0.1%. The plate containing the samples was gently vortexed to mix and replaced in the incubator. LPS stock (E. coli serotype 0111:B4, Sigma-Aldrich), stored in aliquots of 100 μg/ml in RPMI at −20° C., was diluted […] in RPMI to make a working stock solution. After 60 minutes of incubation, 10 μl of the prepared LPS working stock was added to the blood to a final concentration of 100 ng/ml. Wells to be used as negative control received RPMI media with no LPS. The plate was again gently vortexed and the plates incubated overnight for 22 hours. Following incubation, the blood was centrifuged at 1500×g for 5 minutes and the plasma removed to either freeze at −20° C. or assay for cytokine release.
(§3) IL-1β, IFNγ and TNFα protein levels were measured using Meso Scale assay kits (Meso Scale Discovery, Gaithersburg, Md., U.S.A.). Reagents were allowed to come to room temperature. Meso Scale plates were blocked with 150 μl of Meso Scale Block B diluent, gently shaking at room temperature for 60 minutes. Plates were washed 3× with wash buffer (PBS, Invitrogen Corporation, with 0.05% Tween-20, Sigma-Aldrich). Calibrators for standard curves were prepared in human plasma/serum assay diluent as a 1/5 serial dilution to achieve final concentrations ranging from 50000 pg/ml to 3.2 pg/ml. Samples were added at 10 to 20 μl/well and calibrators were added at 20 μl/well then incubated at room temperature with gentle shaking for 2 hours. Plates were again washed 3× with wash buffer. Detection antibody was diluted in human plasma/serum antibody diluent to 1 μg/ml and added to the plate at 20 μl/well. Plates were incubated as before for 2 hours and washed again. Read Buffer T (4×) was diluted 1:1 with mqH20 to 2× concentration and 150 μl added to each well. Plates were read on the SECTOR Imager 6000 (Meso Scale Discovery) to generate raw signal values.
(§4) Individual sample signal values were compared to positive and negative controls (vehicle treated blood with LPS and vehicle treated blood without LPS, respectively) to generate % inhibition. Triplicate values were averaged for each donor. The values for three or four donors were averaged and graphed using 4-parameter fit curves in the LabStats plug-in for the Microsoft Excel application.

In series [2] the test system is TNFα. In words: LPS-induced human whole blood, TNFα release. As to conditions: Homo sapiens, mean of donors. It counts as cell-based. As for the experimental part: as §1, §2, §3, §4
Series [3] has as its system IL-1β. Description: LPS-induced human whole blood, IL-1β release. The note with it: Homo sapiens, mean of donors. It counts as cell-based. On the procedure: as §1, §2, §3, §4
Series [4] has as its system IL-6. In words: LPS-induced human whole blood, IL-6 release. The format is cell-based. The note with it: mean of donors.
Series [5] relates to Mouse collagen-induced arthritis. In words: Therapeutic mouse collagen-induced arthritis (mCIA). The format is in vivo. The text has this: Mouse Collagen-induced arthritis is a commonly used chronic, preclinical model of rheumatoid arthritis in which joint swelling and bone destruction occur following immunization with type II collagen. Reduction of disease incidence and severity has been shown previously to be predictive of disease-modification and signs and symptoms mitigation, respectively, in a clinical setting.
In the therapeutic mCIA model, induction of disease incidence and severity was synchronized via LPS stimulation. Male DBA/J mice were immunized with 100 ug of bovine type II collagen (bCII) on day 0. All mice received an intraperitoneal injection of 20 μg of LPS on day 28 and disease was allowed to develop through day 34. At day 34, all mice had disease (incidence=100%) with an average severity score of seven. Dosing of compounds was initiated in the therapeutic mode on day 34 and continued through day 49. Different treatments were compared by measuring the decrease in incidence (i.e., resolution of disease) and the decrease in severity of paw swelling over time.
(§5) ED50 and ED80 values are obtained for the various parameters using four-parameter logistic fits of data. For each experiment/dose group, outliers are detected by calculating the number of standard deviations each mouse's value was from the mean of their group and then dividing by the standard deviation of the group. The means and standard deviations used in this calculation omitted the value being examined so that, if it were an outlier, it would have no influence. If the value being examined is more than 2.5 standard deviations from the mean, it was not used in the rest of the calculations.
(§6) Percent inhibition values are then calculated for each animal using the means of the vehicle and 10 mpk prednisone control groups. The individual mouse percent inhibition values are then fit to a four-parameter logistic model using the area under curve mean for each group. Since all four parameters are estimated and the lower plateau is not fixed at 0% and the upper plateau was not fixed at 100%, the ED50 and ED80 values are calculated by using an inverse calibration formula for a response equal to 50% or 80%. The designation “nd” means not determined.

Series [6] has as its system LPS-induced TNFα. In words: 28-day mouse side-effect model, LPS-induced serum TNFα suppression. The format is in vivo. As to conditions: oral gavage 28 days, LPS challenge; for ED50: 672 h, read-out: TNFα Suppression (ED50 dose). On the procedure:
(§7) 10-12 week old female Swiss Webster mice (Taconic, Germantown, N.Y., U.S.A.) weighing 27-29 grams are used in accordance with the guidelines of the Institutional Animal Care and Use Committee and in accordance with NIH guidelines on laboratory animal welfare. Mice are acclimated to the Pfizer animal facility for 3-7 days prior to being placed on study. Prednisolone and DAGR compounds are administered by oral gavage for a total of 28 days. Each treatment group generally contains 8-10 mice. To establish a dosing regimen for the studies, a pilot pharmacodynamic time course experiment is conducted to quantify TNFa repression after a single ED80 dose (determined from the acute LPS endotoxemia mouse model). […] DAGR compounds vary in their required frequency of doses.
(§8) Body weights are measured on the first and last day of each experiment. Blood samples are obtained after ˜3 weeks of dosing for steady-state pharmacokinetic analysis. To assess compound effects on LPS-induced TNF-a, all mice receive an intraperitoneal injection of LPS (Salmonella Typhosa, Sigma, St. Louis, L-7895) 2.5 hr after the last dose on day 28. Mice are sacrificed 90 min. after LPS administration. Serum samples are assayed for osteocalcin and TNFa using the Linco multiplex assay (St. Charles, Mo.) and Luminex 100 (Austin, Tex.). Samples are diluted 1:20 and the assay is run according to manufacturer's instructions. An osteocalcin standard is purchased separately from Biomedical Technologies Incorporated (Stoughton, Mass.). Serum insulin is measured to assess compound effects on insulin resistance. Insulin was measured using the UltraSensitive Mouse EIA kit from Alpco Diagnostics (Salem, N.H.) following the manufacturer's protocol.
as §5, §6

Series [7] deals with osteocalcin. In words: 28-day mouse side-effect model, serum osteocalcin suppression. It counts as in vivo. The note with it: oral gavage 28 days; for ED50 at 28 days: female, Swiss Webster, read-out: Osteocalcin Suppression (ED50 dose). On the procedure: as §7, §8, §5, §6
Series [8] deals with bone formation rate. Description: 28-day mouse side-effect model, cortical bone histomorphometry (bone formation rate). As to conditions: oral gavage 28 days, tibia cortical bone formation rate; for ED50 at 28 days: female, Swiss Webster, read-out: BFR (ED50 dose). It counts as in vivo. As for the experimental part:
as §7
During the in-life portion of each study, mice received two IP injections of the fluorochrome calcein (C-0875; Sigma-Aldrich; 20 mg/kg; 200 μL/mouse), dissolved in 2% sodium bicarbonate, on days 1 and 26 for bone histomorphometry measurements. Fluorochrome labels incorporate into the bone mineral and allow measurement of bone formation rate. During the tissue harvest, the left tibia is excised and cleaned for cortical histomorphometry measurements. After all skin and muscle are removed, tibiae are placed in 70% ethanol (4° C.) in the dark for a minimum of 24 hours.
Ground transverse sections are used for histomorphometric analysis of cortical bone^1. Bones are sectioned using a low speed saw (Isomet, Buehler, Lake Bluff, Ill.) equipped with a diamond wafer blade. The end of each tibia is removed proximal to tibia-fibula synostosis and a […] cross-section is cut. Using a roughened glass plate and a cork, sections are ground to […] until transparent and all labels distinguishable under a fluorescent microscope. Sections are dehydrated using the following solutions for a minimum of 2 minutes each: 1) 70% ethanol, 2) 95% ethanol, 3) 100% ethanol, 4) 50/50 ethanol/xylene, and 5) xylene (twice) (Sigma, St. Louis, 534056). Sections are mounted using Eukitt Quick Mounting Medium (Sigma, St. Louis, 03989) and cover-slipped. Using the Osteomeasure Bone Analysis Program (Decatur, Ga.), bone formation rate is calculated by tracing the 1st and 2nd fluorescent labels in addition to tracing the inner and outer perimeter of the bone. Bone formation rate is calculated by the following equation: (Interlabel Width/Label Interval)*(Labeled Perimeter/Bone Perimeter). At least 5 samples are measured from each treatment group in each study.
as §5, §6

Series [9] concerns serum insulin. In words: 28-day mouse side-effect model, serum insulin. It counts as in vivo. As to conditions: oral gavage 28 days; for ED50 at 28 days: female, Swiss Webster, read-out: Insulin (ED50 dose). On the procedure: as §7, §8, §5, §6

The term inhibition denotes the drop in the measured response relative to a control, in per cent. For `Cc1ncccc1CNC(=O)c1ccc2c(c1)CC[C@@H]1C[C@@](O)(CCC(F)(F)F)CC[C@@]21Cc1ccccc1` [Comparator A, (4βS,7S,8αR)-4β-benzyl-7-hydroxy-N-((2-methylpyridin-3-yl)methyl)-7-(3,3,3-trifluoropropyl)-4β,5,6,7,8,8α,9,10-octahydrophenanthrene-2-carboxamide], the inhibition at 0.00137174 µM in series [1] (1.371742 nM) came to 18.1%; in series [2] (1.371742 nM), 18.1%; in series [3] (1.371742 nM), 32%; in series [4] (1.371742 nM), 1.46%. Moreover, the inhibition at 0.00411523 µM in [1] (4.115226 nM) was -1.7%; in [2] (4.115226 nM), -0.861%; in series [3] (4.115226 nM), 22%; in series [4] (4.115226 nM), -4.34%. The inhibition at 0.0123457 µM in series [1] (12.34568 nM) is 0.016%; in [2] (12.34568 nM) it was 0.0309%; in [3] (12.34568 nM) it was 22.8%; in [4] (12.34568 nM), -1.13%. Besides, the inhibition at 0.037037 µM was -9.81% in series [1] (37.03704 nM), -4.19% in [2] (37.03704 nM), 17.3% in [3] (37.03704 nM) and -3.52% in series [4] (37.03704 nM). Also, the inhibition at 0.111111 µM in [1] (111.1111 nM) was 8.74%; in series [2] (111.1111 nM), -3.82%; in [3] (111.1111 nM), 8.6%; in series [4] (111.1111 nM) it was -3.5%. Further, the inhibition at 0.333333 µM in series [1] (333.3333 nM) was -6.32%; in series [2] (333.3333 nM), -4.61%; in [3] (333.3333 nM), 12.2%; in series [4] (333.3333 nM), -2.83%. Also, the inhibition at 1 µM is 16.5% in series [1] (1000 nM), -5.44% in series [2] (1000 nM), 15% in series [3] (1000 nM) and -0.89% in [4] (1000 nM). For the same compound, the inhibition at 3 µM in [1] (3000 nM) is 28%; in series [2] (3000 nM), -3.04%; in series [3] (3000 nM) it was 16.4%; in series [4] (3000 nM), -1.97%.
The term ED50 denotes the midpoint of the dose-response relation. Consider `Cc1ncccc1NC(=O)c1ccc2c(c1)CC[C@@H]1C[C@@](O)(c3ccccn3)[C@](C)(O)C[C@@]21Cc1ccccc1` [Comparator C, (4bR,6R,7R,8aR)-4b-benzyl-6,7-dihydroxy-6-methyl-N-(2-methylpyridin-3-yl)-7-(pyridin-2-yl)-4b,5,6,7,8,8a,9,10-octahydrophenanthrene-2-carboxamide], for which, in series [5] (816 h, dosing day 34 to 49, read-out: Therapeutic mCIA (ED50 dose)), the ED50 is 0.8 mg/kg. The “Therapeutic mCIA (ED80 dose)” value in series [5] (dosing day 34 to 49) is listed as 2.9. In [6], the median effective dose (ED50) worked out at 3.08 mg/kg and the “TNFα Suppression (ED80 dose)” value is recorded as 9.87. In [7], the ED50 at 28 days amounted to 3.68 mg/kg and the “Osteocalcin Suppression (ED80 dose)” value is above 20. In [8], the ED50 at 28 days came out at 3.72 mg/kg and the “BFR (ED80 dose)” value is on record as 7.88. Further, in series [9], the 50% effective dose (ED50) at 28 days is above 20 mg/kg and the “Insulin (ED80 dose)” value is on record as above 20.
On to `C[C@@]1(O)C[C@@]2(Cc3ccccc3)c3ccc(C(=O)NCc4cccnc4)cc3CC[C@@H]2C[C@@]1(O)c1ccccc1` [Comparator D, (4bR,6R,7R,8aR)-4b-benzyl-6,7-dihydroxy-6-methyl-7-phenyl-N-(pyridin-3-ylmethyl)-4b,5,6,7,8,8a,9,10-octahydrophenanthrene-2-carboxamide], for which, in series [6], the median effective dose (ED50) turned out to be 11.4 mg/kg and the “TNFα Suppression (ED80 dose)” value worked out at 14.48. Also, in [7], the ED50 at 28 days was above 60 mg/kg and the “Osteocalcin Suppression (ED80 dose)” value was above 60. Besides, in series [8], the 50% effective dose (ED50) at 28 days was determined as 35.9 mg/kg and the “BFR (ED80 dose)” value was above 60. Further, in [9], the ED50 at 28 days is above 60 mg/kg and the “Insulin (ED80 dose)” value was above 60.
